Experimental data as given in patent US20210290816A1, “LIQUID EMBOLICS” (MicroVention, Inc., priority 2020, published 2021).
Structures can show the parent of a compound that is named as a salt. One block for each compound: values may come before it.

Legend:
[1] = In vitro elution of carmustine from PHIL® solution; assay type: physicochemical; settings: 50 mg in 1 mL 25 wt % PHIL®, 99 mL distilled water, room temperature
Protocol: (§1) Fifty mg of carmustine are dissolved in 1 mL of 25 wt % PHIL® solution, which includes triiodophenol-(lactide-co-glycolide) acrylate and hydroxyethyl methacrylate in dimethyl sulfoxide. The 1 mL of 25 wt % PHIL®/carmustine solution is precipitated in 99 mL of a dissolution medium, including distilled water at room temperature. At 2, 5, 9, 14, 20, 27, 35, 44, 54, 65 and 90 minutes, 1 mL of the supernatant is pipetted out and placed in a HPLC vial.
The concentration of carmustine in each sample is determined using an Agilent 1100 HPLC system. The chromatographic analysis is performed with a Primesep 100 column (3.2 mm×50 mm, 3 μm). The mobile phase includes 10% methanol and 90% 10 mM potassium phosphate buffer solution pH 3 with 5% acetonitrile and 7.2 mM triethylamine delivered at 1 mL/min. The injection volume is 3 μL and the wavelength of the ultraviolet detector is 230 nm. The calibration curve is prepared from 10 to 1000 ppm of carmustine. The amount of carmustine released and relative percentage are calculated from the concentration data.

[2] = 50 mg in 1 mL 25 wt % PHIL®, 99 mL distilled water, room temperature
Protocol: as §1, with “cyclophosphamide” for “carmustine”, “PHIL®/cyclophosphamide” for “PHIL®/carmustine”
The concentration of cyclophosphamide in each sample is determined using an Agilent 1100 HPLC system. The chromatographic analysis is performed with a Primesep 100 column (3.2 mm×50 mm, 3 μm). The mobile phase includes 5% acetonitrile and 95% HPLC water with 5% acetonitrile delivered at 1 mL/min. The injection volume is 25 μL and the wavelength of the ultraviolet detector is 197 nm. The calibration curve is prepared from 10 to 1000 ppm of cyclophosphamide. The amount of cyclophosphamide released and relative percentage are calculated from the concentration data.

[3] = In vitro elution of doxorubicin from PHIL® solution; assay type: physicochemical; settings: 50 mg doxorubicin hydrochloride in 1 mL 25 wt % PHIL®, 99 mL 10 mM potassium phosphate buffer pH 4.0, room temperature
Protocol: as §1, with “doxorubicin hydrochloride” for “carmustine”, “PHIL®/doxorubicin” for “PHIL®/carmustine”, “10 mM potassium phosphate buffer solution pH 4.0” for “distilled water”
The concentration of doxorubicin in each sample is determined using an Agilent 1100 HPLC system. The chromatographic analysis is performed with an Agilent Extended-C18 column (4.6 mm×50 mm, 3.5 μm). The mobile phase includes 18% acetonitrile and 82% 10 mM potassium phosphate buffer solution pH 3 with 5% acetonitrile and 7.2 mM triethylamine delivered at 1 mL/min. The injection volume is 3 μL and the wavelength of the ultraviolet detector is 234 nm. The calibration curve is prepared from 10 to 1000 ppm of doxorubicin. The amount of doxorubicin released and relative percentage are calculated from the concentration data.

[4] = In vitro elution of gemcitabine from PHIL® solution; assay type: physicochemical; settings: 50 mg in 1 mL 25 wt % PHIL®, 99 mL PBS, room temperature
Protocol: The chromatographic analysis is performed with an Agilent Extended-C18 column (4.6 mm×50 mm, 3.5 μm). […] The injection volume is 3 μL and the wavelength of the ultraviolet detector is 275 nm.

[5] = In vitro elution of irinotecan from PHIL® solution; assay type: physicochemical; settings: 50 mg irinotecan hydrochloride in 1 mL 25 wt % PHIL®, 99 mL 10 mM potassium phosphate buffer pH 4.0, room temperature
Protocol: (§2) The chromatographic analysis is performed with an Agilent Extended-C18 column (4.6 mm×50 mm, 3.5 μm). The mobile phase includes of 18% acetonitrile and 82% 10 mM potassium phosphate buffer solution pH 3 with 5% acetonitrile and 7.2 mM triethylamine delivered at 1 mL/min. The injection volume is 2 μL and the wavelength of the ultraviolet detector is 223 nm.

Canine Liver = assay: In vivo evaluation of PHIL LV liquid embolic with irinotecan in canine liver
Protocol: A canine is anesthetized and a 6 Fr sheath is inserted into the femoral artery via a cutdown. A 6 Fr Glidecath is advanced retrograde into the celiac trunk and further into the hepatic artery. Following angiography, a Scepter balloon (4 mm×10 mm) is advanced through the Glidecath and into a branch of the hepatic artery. […] Blood is collected at 5, 15, 30, 60, and 120 minutes post-embolization for irinotecan quantification.

[6] = In vitro elution of oxaliplatin from PHIL® solution (ICP-MS platinum); assay type: physicochemical; settings: 50 mg in 1 mL 25 wt % PHIL®, 50 mL PBS replaced at each time point, room temperature
Protocol: The remaining supernatant is poured out and the precipitates are mixed with a fresh 50 mL of the dissolution medium at room temperature.
Samples are prepared for ICP-MS analysis to measure the platinum concentration in the supernatant by mixing a sample portion (1 mL) with 4 mL of 2% nitric acid (5-fold dilution) or a sample portion (2.5 mL) with 0.05 mL of 2% nitric acid (undiluted). The calibration curve is prepared from 0.5 to 100 ppm of platinum.

[7] = In vitro elution of paclitaxel from PHIL® solution; assay type: physicochemical; settings: 50 mg in 1 mL 25 wt % PHIL®, 199 mL 45:55 acetonitrile/10 mM potassium phosphate buffer pH 4.5, room temperature
Protocol: Fifty mg of paclitaxel are dissolved in 1 mL of 25 wt % PHIL® solution, which includes triiodophenol-(lactide-co-glycolide) acrylate and hydroxyethyl methacrylate in dimethyl sulfoxide. The 1 mL of 25 wt % PHIL®/Paclitaxel solution is precipitated in 199 mL of a dissolution medium, consisting of 45:55 acetonitrile/10 mM potassium phosphate buffer solution pH 4.5 at room temperature. At 2, 5, 9, 14, 20, 27, 35, 44, 54, 65 and 90 minutes, 1 mL of the supernatant is pipetted out and placed in a HPLC vial. The concentration of paclitaxel in each sample is determined using an Agilent 1100 HPLC system. The chromatographic analysis is performed with an Agilent Extended-C18 column (4.6 mm×50 mm, 3.5 μm). The mobile phase includes 50% acetonitrile and 50% 5% acetonitrile in water delivered at 1 mL/min. The injection volume is 10 μL and the wavelength of the ultraviolet detector was 227 nm. The calibration curve is prepared from 5 to 500 ppm of paclitaxel. The amount of paclitaxel released and relative percentage are calculated from the concentration data.

[8] = In vitro elution of sorafenib from PHIL® solution; assay type: physicochemical; settings: 50 mg in 1 mL 25 wt % PHIL®, 999 mL 70:30 acetonitrile/10 mM potassium phosphate buffer pH 4.3, room temperature
Protocol: The 1 mL of 25 wt % PHIL®/sorafenib solution is precipitated in 999 mL of a dissolution medium, including 70:30 acetonitrile/10 mM potassium phosphate buffer solution pH 4.3 at room temperature.
as §2, with “includes 50%” for “includes of 18%”, “and 50%” for “and 82%”, “is 3” for “is 2”, “is 263” for “is 223”, “nm. The calibration curve is prepared from 1 to 100 ppm of sorafenib.” for “nm.”

[9] = In vitro elution of sunitinib from PHIL® solution; assay type: physicochemical; settings: 50 mg sunitinib malate in 1 mL 25 wt % PHIL®, 999 mL phosphate buffered saline
Protocol: The 1 mL of 25 wt % PHIL®/sunitinib solution is precipitated in 999 mL of a dissolution medium, including phosphate buffered saline.
as §2, with “includes 22%” for “includes of 18%”, “and 78%” for “and 82%”, “is 3” for “is 2”, “is 429” for “is 223”, “nm. The calibration curve is prepared from 1 to 100 ppm of sunitinib.” for “nm.”

SMILES: O=NN(CCCl)C(=O)NCCCl [carmustine]
total amount of carmustine eluted ([1]; first 90 minutes): 26 mg per 1 mL of PHIL®
sharp increase of carmustine eluted ([1]; within the first 35 minutes): 21 mg

SMILES: O=P1(N(CCCl)CCCl)NCCCO1 (centres unmarked) [cyclophosphamide]
total amount of cyclophosphamide eluted ([2]; first 90 minutes): 38 mg per 1 mL of PHIL®
sharp increase of cyclophosphamide eluted ([2]; within the first 35 minutes): 35 mg

SMILES: Nc1ccn([C@@H]2O[C@H](CO)[C@@H](O)C2(F)F)c(=O)n1 [gemcitabine]
total amount of gemcitabine eluted ([4]; first 90 minutes): 43 mg per 1 mL of PHIL®
sharp increase of gemcitabine eluted ([4]; within the first 9 minutes): 34 mg

SMILES: O=C1[O][Pt]2([NH][C@@H]3CCCC[C@H]3[NH]2)[O]C1=O [oxaliplatin]
total amount of oxaliplatin eluted ([6]; first 80 minutes): 41 mg per 1 mL of PHIL®
sharp increase of oxaliplatin eluted ([6]; within the first 15 minutes): 37 mg

SMILES: CC(=O)O[C@H]1C(=O)[C@@]2(C)[C@H]([C@H](OC(=O)c3ccccc3)[C@]3(O)C[C@H](OC(=O)[C@H](O)[C@@H](NC(=O)c4ccccc4)c4ccccc4)C(C)=C1C3(C)C)[C@]1(OC(C)=O)CO[C@@H]1C[C@@H]2O [paclitaxel]
total amount of paclitaxel eluted ([7]; first 90 minutes): 38 mg per 1 mL of PHIL®
sharp increase of paclitaxel eluted ([7]; within the first 9 minutes): 30 mg

SMILES: CCN(CC)CCNC(=O)c1c(C)[nH]c(/C=C2\C(=O)Nc3ccc(F)cc32)c1C [sunitinib, sunitinib malate]
total amount of sunitinib eluted ([9]; first 65 minutes): 16 mg per 1 mL of PHIL®
sharp increase of sunitinib eluted ([9]; within the first 2 minutes): 11 mg

The next lines start with the values.

total amount of doxorubicin eluted ([3]; first 90 minutes): 38 mg per 1 mL of PHIL®
sharp increase of doxorubicin eluted ([3]; within the first 14 minutes): 29 mg
SMILES: COc1cccc2c1C(=O)c1c(O)c3c(c(O)c1C2=O)C[C@@](O)(C(=O)CO)C[C@@H]3O[C@H]1C[C@H](N)[C@H](O)[C@H](C)O1 [doxorubicin, doxorubicin hydrochloride]

total amount of irinotecan eluted ([5]; first 90 minutes): 31 mg per 1 mL of PHIL®
sharp increase of irinotecan eluted ([5]; within the first 9 minutes): 24 mg
irinotecan in the blood, rapid rise to (Canine Liver; 1.5 mL PHIL LV loaded with 75 mg irinotecan into hepatic artery branch, blood 5-120 minutes post-embolization): about 300 ppb
tapering of irinotecan in the blood back to baseline (Canine Liver; 1.5 mL PHIL LV loaded with 75 mg irinotecan, blood collected to 120 minutes): beyond the timescale of the experiment
SMILES: CCc1c2c(nc3ccc(OC(=O)N4CCC(N5CCCCC5)CC4)cc13)-c1cc3c(c(=O)n1C2)COC(=O)[C@]3(O)CC [irinotecan, irinotecan hydrochloride]

total amount of sorafenib eluted ([8]; first 90 minutes): 42 mg per 1 mL of PHIL®
sharp increase of sorafenib eluted ([8]; within the first 2 minutes): 38 mg
SMILES: CNC(=O)c1cc(Oc2ccc(NC(=O)Nc3ccc(Cl)c(C(F)(F)F)c3)cc2)ccn1 [sorafenib]
